Patent US9241916B2, “Cognitive performance with sirtuin activators” (President and Fellows of Harvard College, priority 2005, dated 2016)
“Also recorded” adds a separate entry of the source.

Key:
mice [1] = assay: Ethanol-induced impairment of context-dependent fear conditioning; format: in vivo
Text: (§1) The principle of Pavlovian fear conditioning is as follows. During the training procedure mice are exposed to a novel context (context 1), consisting of an observation chamber with defined lightning, odor, background noise and geometry. After exploring this novel environment for 180 s the animals are exposed to a tone for 30 s followed by a mild electric foot shock for 2 s. On the basis of associative learning mice display aversive freezing behavior during a memory test consisting of re-expose to the conditioning context 24 h after the training. […] Tone-dependent fear memories can be analyzed by presenting the tone in context 2. Freezing is an inborn behavior that rodents express in threatening situations. It is defined as the complete absence of movement, except respiration and heartbeat. […] Therefore, freezing behavior is commonly used to quantify the amount of learning.

CK-p25 mice = assay: p25-mediated cognitive decline, fear conditioning in CK-p25 mice; format: in vivo; conditions: p25 induced for 5 weeks, icv. 5 μg/mouse 2-3×/week, vs. vehicle
Text: as §1

C57BL/6J mice = assay: Context- and tone-dependent Pavlovian fear conditioning, icv. injection; format: in vivo; conditions: vs. vehicle
Text: A fundamental type of learning is associative learning that can be analyzed in rodents using the pavlovian fear conditioning paradigm (Fendt and Fanselow, 1999; Fischer et al., 2003). As fear conditioning is a robust and commonly used method to analyze learning and allows to delineate the involvement of distinct brain structures in the learning process, we choose this paradigm to investigate the effect of reveratrol on learning. The principle of Pavlovian fear conditioning is as follows. During the training procedure mice are exposed to a novel context (context 1), consisting of an observation chamber with defined lightning, odor, background noise and geometry. After exploring this novel environment for 180 s the animals are exposed to a tone for 30 s followed by a mild electric foot shock for 2 s. On the basis of associative learning mice display aversive freezing behavior during a memory test consisting of re-expose to the conditioning context 24 h after the training. […] Tone-dependent fear memories can be analyzed by presenting the tone in context 2. Freezing is an inborn behavior that rodents express in threatening situations. It is defined as the complete absence of movement, except respiration and heartbeat. Whereas mice display no freezing behavior during training, a significant increase of freezing behavior is observed upon re-exposure to the conditioned context only. Therefore, freezing behavior is commonly used to quantify the amount of learning. C57BL/6J mice were anesthetized and microcannula (PlasticOne; AP −0 mm, lateral 1 mm, depth 2 mm) were implanted into the lateral brain ventricles (icv). […] The animals were trained by context- and tone-dependent fear conditioning 24 h after the last icv. injection and memory retention was analyzed the following day (see FIG. 1A). […] The mice were tested for memory retention 24 h later by re-exposure to the conditioning context.

mice [2] = assay: Context- and tone-dependent fear conditioning, intra-hippocampal (i.h.) injection; format: in vivo; conditions: vs. vehicle
Text: The principle of Pavlovian fear conditioning is as follows. During the training procedure mice are exposed to a novel context (context 1), consisting of an observation chamber with defined lightning, odor, background noise and geometry. After exploring this novel environment for 180 s the animals are exposed to a tone for 30 s followed by a mild electric foot shock for 2 s. On the basis of associative learning mice display aversive freezing behavior during a memory test consisting of re-expose to the conditioning context 24 h after the training. […] Tone-dependent fear memories can be analyzed by presenting the tone in context 2. Freezing is an inborn behavior that rodents express in threatening situations. It is defined as the complete absence of movement, except respiration and heartbeat. Whereas mice display no freezing behavior during training, a significant increase of freezing behavior is observed upon re-exposure to the conditioned context only. Therefore, freezing behavior is commonly used to quantify the amount of learning. Context-dependent fear conditioning requires the hippocampus whereas tone-dependent fear conditioning relies on an intact amygdala (Kim and Fanselow, 1992).

Sirt1 deacetylase = molecular target: T1, Sirt1 deacetylase (Homo sapiens, UniProt Q96EB6); conditions: Howitz et al., 2003; Wood et al., 2004; cited from earlier work
T1 sequence (Q96EB6 1-747): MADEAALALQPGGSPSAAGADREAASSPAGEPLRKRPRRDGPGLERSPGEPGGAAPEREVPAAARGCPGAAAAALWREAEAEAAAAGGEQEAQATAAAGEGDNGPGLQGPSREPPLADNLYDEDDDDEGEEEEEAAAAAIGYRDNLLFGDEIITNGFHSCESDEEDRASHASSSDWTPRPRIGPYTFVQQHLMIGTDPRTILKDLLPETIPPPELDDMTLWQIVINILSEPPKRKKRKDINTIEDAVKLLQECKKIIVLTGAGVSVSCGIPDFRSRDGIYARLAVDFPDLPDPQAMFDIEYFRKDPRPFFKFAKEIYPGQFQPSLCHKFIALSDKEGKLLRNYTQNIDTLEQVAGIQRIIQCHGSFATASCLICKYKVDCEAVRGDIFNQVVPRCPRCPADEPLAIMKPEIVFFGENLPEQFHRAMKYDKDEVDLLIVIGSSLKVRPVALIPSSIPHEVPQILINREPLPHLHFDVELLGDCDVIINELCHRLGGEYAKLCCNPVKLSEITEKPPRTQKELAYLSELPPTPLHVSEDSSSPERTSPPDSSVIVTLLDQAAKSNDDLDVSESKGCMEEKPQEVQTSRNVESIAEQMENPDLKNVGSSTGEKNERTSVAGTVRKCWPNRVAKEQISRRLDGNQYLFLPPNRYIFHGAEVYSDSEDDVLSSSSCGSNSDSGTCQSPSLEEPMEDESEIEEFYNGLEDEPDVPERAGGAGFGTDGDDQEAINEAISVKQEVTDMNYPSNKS

[3] = icv. 5 μg/mouse for 7 consecutive days, training 24 h after last injection, memory test the following day
[4] = single icv. injection 5 μg/mouse immediately after training, test 24 h later

| Structure (SMILES) | freezing behavior during the context-dependent memory test (impairment by ethanol) (mice [1]; ip. 33% ethanol/PBS immediately after training) | freezing behavior, memory retention 24 h after fear conditioning (CK-p25 mice) | freezing behavior during the context-dependent memory test (C57BL/6J mice; [3]) | freezing behavior during the tone-dependent memory test (C57BL/6J mice; [3]) | freezing behavior during the context-dependent memory test (C57BL/6J mice; [4]) | freezing behavior during the tone-dependent memory test (C57BL/6J mice; [4]) | freezing behavior during the context-dependent memory test (prevention of ethanol-induced impairment) (mice [1]; ip. 30 mg/kg resveratrol in 33% ethanol/PBS immediately after training, compared with PBS and ethanol groups, 30 mg/kg) | freezing behavior during the context-dependent memory test (mice [2]; i.h. 5 μg/mouse 4 h after the training) | freezing during the tone-dependent memory test (mice [2]; i.h. 5 μg/mouse immediately or 4 h after the training) | agonism of the Sirt1 deacetylase (Sirt1 deacetylase) |
| --- | --- | --- | --- | --- | --- | --- | --- | --- | --- | --- |
| CCO [ethanol] | impaired freezing behavior; also recorded: severe impaired freezing |  |  |  |  |  |  |  |  |  |
| Oc1ccc(C=Cc2cc(O)cc(O)c2)cc1 [resveratrol, 3,5,4′-tri-hydroxystilbene] |  | significantly enhanced | significantly increased freezing behavior | significantly increased freezing behavior | significantly increased freezing behavior; also recorded: significantly enhanced freezing | significantly increased freezing behavior | performed indistinguishable to mice injected only with PBS; also recorded: attenuated this effect | significantly enhanced freezing behavior | not different among groups | potent agonist |
